The first experiment deals with ATF4 luciferase reporter in HEK293T cells. Nature of the experiment: ATF4-Luc assay (in vitro model of VWMD). It is filed as cell-based, human. The conditions noted are these: HEK293T cells carrying the ATF4 luciferase reporter, 1 μg/mL tunicamycin, 7 hours, One Glo luminescence. The method, boiled down: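 Tunicamycin (1 μg/mL) stress with co-added compound for 7 hours in HEK293T cells stably carrying an ATF4 5′-UTR–luciferase reporter. EC50 values come from the luminescent signal (One Glo).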
On to `O=C(COc1ccc(Cl)c(F)c1)NC12CC(c3ccnc(OCCCOC(F)(F)F)c3)(C1)C2` [Compound 602, 2-(4-chloro-3-fluorophenoxy)-N-(3-{2-[3-(trifluoromethoxy)propoxy]pyridin-4-yl}bicyclo[1.1.1]pentan-1-yl)acetamide], for which the concentration for a half-maximal effect (EC50) was < 10 nM.
The same measure, in the same setting: the same measure for `O=C(COc1ccc(Cl)c(F)c1)NC12CC(n3cc(OCCCOC(F)(F)F)cn3)(C1)C2` [Compound 607, 2-(4-chloro-3-fluorophenoxy)-N-(3-{4-[3-(trifluoromethoxy)propoxy]-1H-pyrazol-1-yl}bicyclo[1.1.1]pentan-1-yl)acetamide]: < 10 nM.

Still in this experiment, the particulars now being: Homo sapiens, HEK-293T, 7 h, HEK293T cells carrying the ATF4 luciferase reporter, 1 μg/mL tunicamycin, One Glo luminescence.
On to `O=C(NC12CC(n3cc([C@H]4[C@@H]5CN(CC(F)(F)F)C[C@@H]54)cn3)(C1)C2)[C@H]1C[C@@H](O)c2cc(Cl)ccc2O1` [Compound 583, (2R,4R)-6-chloro-4-hydroxy-N-(3-{4-[(1R,5S,6s)-3-(2,2,2-trifluoroethyl)-3-azabicyclo[3.1.0]hexan-6-yl]-1H-pyrazol-1-yl}bicyclo[1.1.1]pentan-1-yl)-3,4-dihydro-2H-1-benzopyran-2-carboxamide], for which the EC50 was < 10 nM.
Still for that read-out and setting: the same measure for `O=C(NC12CC(n3cc(OC[C@H]4C[C@H](OC(F)(F)F)C4)cn3)(C1)C2)[C@H]1C[C@@H](O)c2cc(Cl)ccc2O1` [Compound 584, (2R,4R)-6-chloro-4-hydroxy-N-[3-(4-{[(1r,3R)-3-(trifluoromethoxy)cyclobutyl]methoxy}-1H-pyrazol-1-yl)bicyclo[1.1.1]pentan-1-yl]-3,4-dihydro-2H-1-benzopyran-2-carboxamide]: < 10 nM; for `O=C(NC12CC(n3cc(C(=O)N4CC[C@H](OC(F)(F)F)C4)cn3)(C1)C2)[C@H]1C[C@H](O)c2cc(Cl)ccc2O1` [Compound 585, (2R,4S)-6-chloro-4-hydroxy-N-(3-{4-[(3S)-3-(trifluoromethoxy)pyrrolidine-1-carbonyl]-1H-pyrazol-1-yl}bicyclo[1.1.1]pentan-1-yl)-3,4-dihydro-2H-1-benzopyran-2-carboxamide]: < 10 nM.
The same measure, in the same setting: under `O=C(NC12CC(n3cc(O[C@H]4C[C@H](OC(F)(F)F)C4)cn3)(C1)C2)[C@H]1C[C@@H](O)c2cc(Cl)ccc2O1` [Compound 587, (2R,4R)-6-chloro-4-hydroxy-N-[3-(4-{[(1r,3R)-3-(trifluoromethoxy)cyclobutyl]oxy}-1H-pyrazol-1-yl)bicyclo[1.1.1]pentan-1-yl]-3,4-dihydro-2H-1-benzopyran-2-carboxamide] stands < 10 nM.
Still for that read-out and setting: under `O=C(NC12CC(n3cc(O[C@H]4C[C@H](COC(F)(F)F)C4)cn3)(C1)C2)[C@H]1C[C@@H](O)c2cc(Cl)ccc2O1` [Compound 588, (2R,4R)-6-chloro-4-hydroxy-N-{3-[4-(((1r,3R)-3-[(trifluoromethoxy)methyl]cyclobutyl}oxy)-1H-pyrazol-1-yl]bicyclo[1.1.1]pentan-1-yl)-3,4-dihydro-2H-1-benzopyran-2-carboxamide] stands 10 to 50 nM; under `O=C(NC12CC(n3cc(O[C@H]4C[C@@H](COC(F)(F)F)C4)cn3)(C1)C2)[C@H]1C[C@@H](O)c2cc(Cl)ccc2O1` [Compound 589, (2R,4R)-6-chloro-4-hydroxy-N-{3-[4-({(1s,3S)-3-[(trifluoromethoxy)methyl]cyclobutyl}oxy)-1H-pyrazol-1-yl]bicyclo[1.1.1]pentan-1-yl}-3,4-dihydro-2H-1-benzopyran-2-carboxamide], 10 to 50 nM.
For the compound `O=C(NC12CCC(n3cc(OCCOC(F)(F)F)cn3)(C1)C2)[C@H]1C[C@@H](O)c2cc(Cl)c(F)cc2O1` [Compound 590, (2R,4R)-6-chloro-7-fluoro-4-hydroxy-N-(4-{4-[2-(trifluoromethoxy)ethoxy]-1H-pyrazol-1-yl}bicyclo[2.1.1]hexan-1-yl)-3,4-dihydro-2H-1-benzopyran-2-carboxamide], the EC50 is 10 to 50 nM.
Take `O=C(NC12CC(n3cc(-c4ccc(C(F)(F)F)cn4)cn3)(C1)C2)C1CNc2cc(C(F)(F)F)c(F)cc2O1` (stereo not shown) [Compound 591, 7-fluoro-6-(trifluoromethyl)-N-(3-{4-[5-(trifluoromethyl)pyridin-2-yl]-1H-pyrazol-1-yl}bicyclo[1.1.1]pentan-1-yl)-3,4-dihydro-2H-1,4-benzoxazine-2-carboxamide]: the EC50 fell in the range of 10 to 50 nM.
On the same count and under the same terms, under `O=C(NC12CC(n3cc(OCCOC(F)(F)F)cn3)(C1)C2)C1CNc2cc(C(F)(F)F)c(F)cc2O1` (stereo not shown) [Compound 592, 7-fluoro-N-(3-{4-[2-(trifluoromethoxy)ethoxy]-1H-pyrazol-1-yl}bicyclo[1.1.1]pentan-1-yl)-6-(trifluoromethyl)-3,4-dihydro-2H-1,4-benzoxazine-2-carboxamide] stands 10 to 50 nM.
The same measure, in the same setting: under `O=C(NC12CC(c3ccnc(OCCOC(F)(F)F)n3)(C1)C2)[C@H]1C[C@@H](O)c2cc(C(F)(F)F)c(F)cc2O1` [Compound 593, (2R,4R)-7-fluoro-4-hydroxy-N-(3-{2-[2-(trifluoromethoxy)ethoxy]pyrimidin-4-yl}bicyclo[1.1.1]pentan-1-yl)-6-(trifluoromethyl)-3,4-dihydro-2H-1-benzopyran-2-carboxamide] stands 10 to 50 nM; under `O=C(NC12CCC(n3cc(OCCOC(F)(F)F)cn3)(C1)C2)[C@H]1C[C@@H](O)c2cc(Cl)ccc2O1` [Compound 594, (2R,4R)-6-chloro-4-hydroxy-N-(4-{4-[2-(trifluoromethoxy)ethoxy]-1H-pyrazol-1-yl}bicyclo[2.1.1]hexan-1-yl)-3,4-dihydro-2H-1-benzopyran-2-carboxamide], 50 to 250 nM; under `O=C(COc1ccc(Cl)c(F)c1)NC12CCC(n3cc(OCCOC(F)(F)F)cn3)(C1)C2` [Compound 595, 2-(4-chloro-3-fluorophenoxy)-N-(4-{4-[2-(trifluoromethoxy)ethoxy]-1H-pyrazol-1-yl}bicyclo[2.1.1]hexan-1-yl)acetamide], 250 to 500 nM.
On to `COc1ccc2nn([C@H]3CC[C@H](NC(=O)COc4ccc(Cl)c(Cl)c4)CC3)cc2n1` [Compound 596, 2-(3,4-dichlorophenoxy)-N-[(1r,4r)-4-(5-methoxy-2H-pyrazolo[4,3-b]pyridin-2-yl)cyclohexyl]acetamide], for which the EC50 is < 10 nM.
Same read-out and setting: the same measure for `COc1ccc2nn(C34CCC(NC(=O)COc5ccc(Cl)c(F)c5)(CC3)[C@@H](O)C4)cc2c1` [Compound 597, 2-(4-chloro-3-fluorophenoxy)-N-[(2S)-2-hydroxy-4-(5-methoxy-2H-indazol-2-yl)bicyclo[2.2.2]octan-1-yl]acetamide]: 10 to 50 nM; for `O=C(COc1ccc(Cl)c(F)c1)N[C@H]1CC[C@H](n2cc(-c3ccc(C(F)(F)F)cn3)cn2)CC1` [Compound 598, 2-(4-chloro-3-fluorophenoxy)-N-[(1r,4r)-4-(4-[5-(trifluoromethyl)pyridin-2-yl]-1H-pyrazol-1-yl)cyclohexyl]acetamide]: < 10 nM.
On the same count and under the same terms, under `O=C(COc1ccc(Cl)c(F)c1)NC12CC(n3cc(C(=O)N4CC[C@H](OC(F)(F)F)C4)nn3)(C1)C2` [Compound 599, 2-(4-chloro-3-fluorophenoxy)-N-(3-{4-[(3S)-3-(trifluoromethoxy)pyrrolidine-1-carbonyl]-1H-1,2,3-triazol-1-yl}bicyclo[1.1.1]pentan-1-yl)acetamide] stands < 10 nM; under `O=C(COc1ccc(Cl)c(F)c1)NC12CC(c3ccc(C(=O)N4CC(COC(F)(F)F)C4)nc3)(C1)C2` [Compound 600, 2-(4-chloro-3-fluorophenoxy)-N-[3-(6-{3-[(trifluoromethoxy)methyl]azetidine-1-carbonyl}pyridin-3-yl)bicyclo[1.1.1]pentan-1-yl]acetamide], < 10 nM.
The same measure, in the same setting: the same measure for `O=C(COc1ccc(Cl)c(F)c1)NC12CC(c3ccc(C(=O)N4CC(OCC(F)(F)F)C4)nc3)(C1)C2` [Compound 601, 2-(4-chloro-3-fluorophenoxy)-N-(3-{6-[3-(2,2,2-trifluoroethoxy)azetidine-1-carbonyl]pyridin-3-yl}bicyclo[1.1.1]pentan-1-yl)acetamide]: 10 to 50 nM; for `O=C(COc1ccc(Cl)c(F)c1)NC12CC(c3ccc(C(=O)N4CC[C@H](OC(F)(F)F)C4)nc3)(C1)C2` [Compound 603, 2-(4-chloro-3-fluorophenoxy)-N-(3-{6-[(3S)-3-(trifluoromethoxy)pyrrolidine-1-carbonyl]pyridin-3-yl}bicyclo[1.1.1]pentan-1-yl)acetamide]: < 10 nM; for `O=C(COc1ccc(C(F)(F)F)cc1)NC12CC(n3cc(C(=O)N4CC[C@H](OC(F)(F)F)C4)cn3)(C1)C2` [Compound 604, N-(3-{4-[(3S)-3-(trifluoromethoxy)pyrrolidine-1-carbonyl]-1H-pyrazol-1-yl}bicyclo[1.1.1]pentan-1-yl)-2-[4-(trifluoromethyl)phenoxy]acetamide]: < 10 nM.
In the case of `O=C(COc1ccc(Cl)c(F)c1)NC12CC(c3ccc(C(=O)N4CC(OC(F)(F)F)C4)nc3)(C1)C2` [Compound 605, 2-(4-chloro-3-fluorophenoxy)-N-(3-{6-[3-(trifluoromethoxy)azetidine-1-carbonyl]pyridin-3-yl}bicyclo[1.1.1]pentan-1-yl)acetamide], the EC50 is < 10 nM.
The same measure, in the same setting: the same measure for `O=C(COc1ccc(Cl)c(Cl)c1)NC12CC(n3cc(C(=O)N4CC[C@H](OC(F)(F)F)C4)cn3)(C1)C2` [Compound 606, 2-(3,4-dichlorophenoxy)-N-(3-{4-[(3S)-3-(trifluoromethoxy)pyrrolidine-1-carbonyl]-1H-pyrazol-1-yl}bicyclo[1.1.1]pentan-1-yl)acetamide]: < 10 nM; for `O=C(COc1ccc(Cl)c(F)c1)NC12CC(n3cc(C4CCN(CC(F)(F)F)CC4)cn3)(C1)C2` [Compound 608, 2-(4-chloro-3-fluorophenoxy)-N-(3-{4-[1-(2,2,2-trifluoroethyl)piperidin-4-yl]-1H-pyrazol-1-yl}bicyclo[1.1.1]pentan-1-yl)acetamide]: 10 to 50 nM.

For the origin of these results see patent US20250145594A1, “MODULATORS OF THE INTEGRATED STRESS PATHWAY” (Calico Life Sciences LLC, priority 2020, published 2025).
